In US20140066449A1, “DIPYRIDINIUM DERIVATIVES” (SABREPHARM LIMITED, priority 2011, published 2014):
Read-outs that look alike come from different tables or passages of the source.

Key:
[1] = system: HEK293 cells; assay: ROS production in intact HEK293 cells (DCFDA, flow cytometry); type: cell-based, human; details: 5 mM, 48 hours, absence and presence of pluronic acid 0.1%
Protocol: The ability of test compounds to impact ROS production in intact HEK293 cells after 48 hours exposure was assessed.
HEK293 cells were stained with 2′,7′-dichlorofluorescein diacetate (DCFDA; 10 μM, 30 minutes, 37° C.). The cells were then washed and resuspended to 250×10^5/ml. The stained HEK293 cells were seeded into a 24 well plate ([…]) in DMEM supplemented with 10% FCS, antibiotics and L-glutamine. Drugs at indicated concentrations were added followed by incubation for 48 hours at 37° C. before HEK293 cells were washed, trypsinised and resuspended in PBS prior to analysis for ROS production by flow cytometry.

[2] = system: HEK293 cells; assay: Cell death assay in HEK293 cells (PI staining, flow cytometry); type: cell-based, human; details: HEK293, 5 mM, 48 hours, in the presence of pluronic acid 0.1%
Protocol: The ability of test compounds to impact cell death in HEK293 cells after 48 hours exposure was assessed.
HEK293 cells were seeded into a 24 well plate ([…]) in DMEM supplemented with 10% FCS, antibiotics and L-glutamine. Drugs at indicated concentrations were added followed by incubation for 48 hours at 37° C. before HEK293 cells were washed, trypsinised and resuspended in PBS prior to PI staining (0.1 μg/ml) before analysis of PI+ ve cells by flow cytometry.

[3] = system: H460 non-small cell lung adenocarcinoma; assay: MTT in vitro cytotoxicity, H460; type: cell-based; details: Homo sapiens, NCI-H460, 240 h, H460, 10 day exposure
Protocol: (§1) All were stored in the dark at 4° C. An accurately weighed amount of each compound was dissolved in DMSO and Hank's Balanced Salt Solution (Sigma) according to Table 2 below:
(§2) Further dilutions were made in complete RPMI1640 cell culture medium (RPMI1640 cell culture medium supplemented with 10% foetal bovine serum, 1 mM L-glutamine, and 2 mM sodium pyruvate (all from Sigma)).
(§3) H460 non-small cell lung adenocarcinoma, HT-29 colon adenocarcinoma and MCF-7 breast adenocarcinoma (ECACC, Salisbury, Wiltshire) were used for analysis. Cells were cultured in complete RPMI1640 cell culture medium, and maintained as monolayer cultures at 37° C. in a humidified 5% CO2 environment.
(§4) Tumour cell growth inhibition was assessed using the MTT assay with a standard 96 hour plus an extended 10 day incubation. For the 96 hour assay 1×10^4 cells were inoculated into each well of a 96-well plate and incubated overnight at 37° C. in a humidified atmosphere containing 5% CO2 to give time to adhere to the wells and form a monolayer. For the 10 day incubation, 1×102 (H460 and HT-29) and 1×103 (MCF-7) cells were inoculated. The next day, culture medium was removed from each well and replaced with cell culture media for the untreated control, or media containing compound, and the plates then incubated for a further 96 hours or 10 days. […] After 96 hours or 10 days culture medium was removed and 200 μL of 0.5 mgmL-1 MTT solution (Sigma) in complete medium added to each well. Following a further 4 hours incubation, the solution was removed from each well and 150 μL of DMSO added to solubilise the formazan crystals resulting from MTT conversion. Absorbance values for the resulting solutions were read at 550 nm on a Multiskan Ex microplate reader (Thermo Fisher, Loughborough, UK) and cell survival calculated as the absorbance of treated cells divided by the control. Results are expressed in terms of IC50 values (i.e. concentration of compound required to kill 50% of cells), which were determined manually in Microsoft Excel from plots of concentration versus percentage cell survival, and all experiments were performed in triplicate.

[4] = system: HT-29 colon adenocarcinoma; assay: MTT in vitro cytotoxicity, HT-29; type: cell-based; details: Homo sapiens, 240 h, HT-29, 10 day exposure
Protocol: as §1, §2, §3, §4

[5] = system: A2780/cis [cisplatin ovarian resistant line]; assay: Combination with cisplatin, A2780/cis; type: cell-based
[6] = Redox potential study, square wave voltammetry; type: physicochemical; details: 0.1 mol dm-3 LiNTf2, 20° C., first scan
Protocol: BioAnalytical Systems CV50W potentiostat (from BAS Inc., USA)
Square wave voltammetry (4 mV step, 25 mV pulse, 10 Hz SW frequency)
3 mm diameter glassy carbon working electrode (from BAS)
3 mm diameter glassy carbon counter electrode (from BAS)
Saturated calomel reference electrode (SCE, from Sycopel Scientific Ltd., UK)
0.1 mol dm-3 lithium bis(trifluoromethanesulphonyl)imide ((LiNTf2)CAS 90076-65-6, from 3M)
Voltammograms were recorded from 0.5 V to −1.2 V in deoxygenated solutions of the Compounds.

[7] = system: MCF-7 breast adenocarcinoma; assay: MTT in vitro cytotoxicity, MCF-7; type: cell-based, human; details: Homo sapiens, MCF7, 240 h, MCF-7, 10 day exposure
Protocol: as §1, §2, §3, §4

[8] = system: A2780 [ovarian]; assay: Combination with cisplatin, A2780; type: cell-based
[9] = system: M 14 [melanoma]; assay: Combination with cisplatin, M14; type: cell-based
[10] = system: MCF7 [Breast]; assay: Combination with cisplatin, MCF-7; type: cell-based, human
[11] = system: human mitochondria isolated from HEK293 cells; assay: ROS production in isolated mitochondria (DCFDA); type: biochemical; details: isolated HEK293 mitochondria, 100 μM, 120 mins
Protocol: The ability of test compounds to impact ROS production in isolated mitochondria after 120 mins exposure was assessed.
Mitochondria were isolated from harvested human embryonic kidney (HEK293) cells (20×10^6) using a commercial kit (Thermo Scientific) before re-suspension in PBS to a final volume of 800 μL. […] Independent experiments (each assessing the impact of all four compounds along with a positive [AAPH; 5.0 mM] and vehicle control) were repeated three times.

[12] = system: dog; details: cited from earlier work
[13] = system: rat; details: oral; cited from earlier work
[14] = system: Modified mouse fibroblasts Nrf2−/−; details: cited from earlier work
[15] = system: cells (depending on the cell studied); details: read-out: LC 50, in vitro; cited from earlier work
[16] = highest concentration 30 μM, read-out: IC50 Run 1
[17] = highest concentration 100 μM, read-out: IC50 Run 2
[18] = highest concentration 100 μM, read-out: IC50 Run 3
[19] = mean of runs, read-out: IC50 Mean
[20] = compound 1 μM + cisplatin 10 μM
[21] = compound 3 μM + cisplatin 10 μM
[22] = compound 10 μM + cisplatin 10 μM
[23] = compound 10 μM + cisplatin 1 μM
[24] = compound 10 μM + cisplatin 3 μM

CC(C)(N=NC(C)(C)C(=N)N)C(=N)N.Cl.Cl [AAPH]
ROS production [1]: induced ROS production in the absence and presence of pluronic acid
cell death (PI staining) [2]: inducedcell death in HEK293 cells in 2/3 experiments

OCc1ccc2[n+](c1)CC[n+]1ccccc1-2 [Compound B, 3-(hydroxymethyl)-6,7-dihydrodipyrido[1,2-a:2′,1′-c]pyrazine-5,8-diium bistrifluoromethanesulfonate]
IC50 [3, 16]: 4.7 µM
IC50 [3, 17]: 4.7 µM
IC50 [3, 18]: 5 µM
IC50 [3, 19]: 4.8 µM
IC50 [4, 16]: 1.8 µM
IC50 [4, 17]: 1.2 µM
IC50 [4, 18]: 1.8 µM
IC50 [4, 19]: 1.6 µM
% cell survival [5, 20]: 32.1%
% cell survival ([5]; compound 1 μM + cisplatin 30 μM): 6.5%
% cell survival ([5]; compound 1 μM + cisplatin 100 μM): 0%
% cell survival ([5]; compound 1 μM, cisplatin 0 μM): 74.4%
% cell survival [5, 21]: 24.2%
% cell survival ([5]; compound 3 μM + cisplatin 30 μM): 8.1%
% cell survival ([5]; compound 3 μM + cisplatin 100 μM): 3.3%
% cell survival ([5]; compound 3 μM, cisplatin 0 μM): 44.7%
% cell survival [5, 22]: 9%
% cell survival ([5]; compound 10 μM + cisplatin 30 μM): 5%
% cell survival ([5]; compound 10 μM + cisplatin 100 μM): 2.1%
% cell survival ([5]; compound 10 μM, cisplatin 0 μM): 15.4%
Reduction potential 1 [6]: −0.460 V vs. SCE
Reduction potential 2 [6]: −0.932 V vs. SCE
IC50 [7, 16]: 2.7 µM
IC50 [7, 17]: 2.3 µM
IC50 [7, 18]: 5.9 µM
IC50 [7, 19]: 3.6 µM
% cell survival ([8]; compound 1 μM + cisplatin 1 μM): 55.2%
% cell survival ([8]; compound 1 μM + cisplatin 3 μM): 20.3%
% cell survival [8, 20]: 5.5%
% cell survival ([8]; compound 1 μM, cisplatin 0 μM): 88.5%
% cell survival ([8]; compound 3 μM + cisplatin 1 μM): 46.3%
% cell survival ([8]; compound 3 μM + cisplatin 3 μM): 18.3%
% cell survival [8, 21]: 5.4%
% cell survival ([8]; compound 3 μM, cisplatin 0 μM): 59%
% cell survival [8, 23]: 20.4%
% cell survival [8, 24]: 11.7%
% cell survival [8, 22]: 3.9%
% cell survival ([8]; compound 10 μM, cisplatin 0 μM): 35.7%
% cell survival ([9]; compound 1 μM + cisplatin 1 μM): 88.4%
% cell survival ([9]; compound 1 μM + cisplatin 3 μM): 83.8%
% cell survival [9, 20]: 58.4%
% cell survival ([9]; compound 1 μM, cisplatin 0 μM): 93.2%
% cell survival ([9]; compound 3 μM + cisplatin 1 μM): 78.9%
% cell survival ([9]; compound 3 μM + cisplatin 3 μM): 72%
% cell survival [9, 21]: 47.1%
% cell survival ([9]; compound 3 μM, cisplatin 0 μM): 79.7%
% cell survival [9, 23]: 55.7%
% cell survival [9, 24]: 50.2%
% cell survival [9, 22]: 33.4%
% cell survival ([9]; compound 10 μM, cisplatin 0 μM): 59.2%
% cell survival ([10]; compound 1 μM + cisplatin 0.1 μM): 87.3%
% cell survival ([10]; compound 1 μM + cisplatin 0.3 μM): 77.9%
% cell survival ([10]; compound 1 μM + cisplatin 1 μM): 72.3%
% cell survival ([10]; compound 1 μM, cisplatin 0 μM): 76.2%
% cell survival ([10]; compound 3 μM + cisplatin 0.1 μM): 81.4%
% cell survival ([10]; compound 3 μM + cisplatin 0.3 μM): 73.2%
% cell survival ([10]; compound 3 μM + cisplatin 1 μM): 74.3%
% cell survival ([10]; compound 3 μM, cisplatin 0 μM): 69.1%
% cell survival ([10]; compound 10 μM + cisplatin 0.1 μM): 63.7%
% cell survival ([10]; compound 10 μM + cisplatin 0.3 μM): 51.7%
% cell survival [10, 23]: 46.3%
% cell survival ([10]; compound 10 μM, cisplatin 0 μM): 67.3%
rank order of efficacy (ROS production) [11]: F>G>B>A
ROS production relative to vehicle treatment ([11]; room temperature): a more modest increase

c1cc[n+]2c(c1)-c1cccc[n+]1CC2 [Diquat]
LD50 dog ([12]; in vivo, po): 100 to 200 mg/kg
LD50 rat [13]: 231 mg/kg
sensitivity to diquat compared to normal unmodified [wildtype] cells [14]: approximately a fourfold increase in sensitivity
CC50 [15]: 40 to 180 µM

COc1cccc2c1C(=O)c1c(O)c3c(c(O)c1C2=O)C[C@@](O)(C(=O)CO)C[C@@H]3O[C@H]1C[C@H](N)[C@H](O)[C@H](C)O1 [Doxorubicin]
LD50 dog ([12]; oral): 2.0 mg/kg
LD50 rat [13]: 12.5 mg/kg

CN(Cc1cnc2nc(N)nc(N)c2n1)c1ccc(C(=O)N[C@@H](CCC(=O)O)C(=O)O)cc1 [Methotrexate]
LD50 dog ([12]; oral): 120 mg/kg
LD50 rat [13]: 180 to 320 mg/kg
